Laboratory results reported in patent US10189841B2, “Purinones as ubiquitin-specific protease 1 inhibitors” (Forma Therapeutics, Inc., priority 2015, dated 2019).

Biological target: USP1 (construct USP1 (I-785, GG670, 671AA)/UAF1 (I-677)-Flag) (Homo sapiens (Human), UniProt O94782, G670A/G671A)
Assay: Ubiquitin-Rhodamine 110 assay for USP1 activity
Format: biochemical
Settings: USP1/UAF1 25 pM, Ub-Rh110 25 nM, 30 min preincubation
In short: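 Ub-Rh110 (25 nM, ≪Km) cleavage read at ex 485/em 535 in Tris pH 8.0, CaCl2, GSH, Prionex, Triton X-100. The screen used 10 µM compound, 100 pM USP1/UAF1 and 45 min at RT.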

USP1 (construct USP1 (I-785, GG670, 671AA)/UAF1 (I-677)-Flag), sequence (O94782 whole entry G670A/G671A): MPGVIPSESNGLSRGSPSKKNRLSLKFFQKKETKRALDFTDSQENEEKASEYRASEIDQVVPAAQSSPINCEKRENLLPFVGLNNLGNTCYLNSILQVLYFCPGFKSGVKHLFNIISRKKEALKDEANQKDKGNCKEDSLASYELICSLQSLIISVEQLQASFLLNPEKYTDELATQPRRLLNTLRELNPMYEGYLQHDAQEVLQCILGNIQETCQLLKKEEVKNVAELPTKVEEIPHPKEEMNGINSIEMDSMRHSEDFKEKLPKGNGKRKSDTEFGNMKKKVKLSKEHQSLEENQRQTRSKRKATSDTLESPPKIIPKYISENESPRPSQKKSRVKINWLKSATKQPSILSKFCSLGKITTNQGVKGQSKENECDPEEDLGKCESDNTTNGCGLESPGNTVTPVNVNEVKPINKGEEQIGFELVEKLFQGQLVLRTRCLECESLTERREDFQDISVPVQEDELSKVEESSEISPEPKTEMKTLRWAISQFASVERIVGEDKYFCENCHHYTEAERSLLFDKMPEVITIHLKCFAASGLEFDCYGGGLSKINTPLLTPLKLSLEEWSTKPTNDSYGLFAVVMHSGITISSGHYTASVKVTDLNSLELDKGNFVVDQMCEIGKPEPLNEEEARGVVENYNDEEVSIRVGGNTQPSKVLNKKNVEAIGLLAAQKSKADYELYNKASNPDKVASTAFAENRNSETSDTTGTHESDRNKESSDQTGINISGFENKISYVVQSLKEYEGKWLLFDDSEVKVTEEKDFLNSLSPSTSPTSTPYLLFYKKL
USP1 (construct USP1 (I-785, GG670, 671AA)/UAF1 (I-677)-Flag), sequence (Q8TAF3 whole entry partner): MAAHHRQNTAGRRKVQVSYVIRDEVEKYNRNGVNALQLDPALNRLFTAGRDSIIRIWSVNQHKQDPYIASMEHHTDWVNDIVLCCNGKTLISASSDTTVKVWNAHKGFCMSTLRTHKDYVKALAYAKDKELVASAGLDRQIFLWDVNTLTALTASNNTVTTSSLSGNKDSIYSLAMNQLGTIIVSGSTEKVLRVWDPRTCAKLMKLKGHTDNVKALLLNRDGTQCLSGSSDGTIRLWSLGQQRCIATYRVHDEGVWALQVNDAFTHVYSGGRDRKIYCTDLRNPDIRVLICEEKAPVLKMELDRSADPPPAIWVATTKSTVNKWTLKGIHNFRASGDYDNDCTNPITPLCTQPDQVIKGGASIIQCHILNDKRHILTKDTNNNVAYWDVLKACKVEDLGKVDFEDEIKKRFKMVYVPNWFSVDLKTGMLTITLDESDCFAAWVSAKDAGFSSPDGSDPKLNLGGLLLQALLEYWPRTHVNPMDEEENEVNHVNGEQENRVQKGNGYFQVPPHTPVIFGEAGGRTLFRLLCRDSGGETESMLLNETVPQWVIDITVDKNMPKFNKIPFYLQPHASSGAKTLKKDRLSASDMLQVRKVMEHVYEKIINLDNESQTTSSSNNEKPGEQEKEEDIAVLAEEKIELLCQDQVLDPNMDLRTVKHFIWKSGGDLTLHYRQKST

| SMILES | IC50 [nM] |
| --- | --- |
| Cc1cc(C(F)(F)F)nn1-c1ccc(Cn2c(=O)n(C)c3cnc(-c4cccnc4C(C)C)nc32)cc1 [Compound I-113, 2-(2-isopropylpyridin-3-yl)-7-methyl-9-(4-(5-methyl-3-(trifluoromethyl)-1H-pyrazol-1-yl)benzyl)-7,9-dihydro-8H-purin-8-one] | < 50 |
| CC(C)c1ncccc1-c1ncc2c(n1)n(Cc1ccc(-c3nc(C(F)(F)F)cn3C3CC3)cc1)c(=O)n2C [Compound I-114, 9-(4-(1-cyclopropyl-4-(trifluoromethyl)-1H-imidazol-2-yl)benzyl)-2-(2-isopropylpyridin-3-yl)-7-methyl-7,9-dihydro-8H-purin-8-one] | < 50 |
| CC(C)c1ncccc1-c1ncc2c(n1)n([C@H](C)c1ccc(-c3nc(C(F)(F)F)cn3C)cc1)c(=O)n2C [Compound I-115, (R)-2-(2-isopropylpyridin-3-yl)-7-methyl-9-(1-(4-(1-methyl-4-(trifluoromethyl)-1H-imidazol-2-yl)phenyl)ethyl)-7,9-dihydro-8H-purin-8-one] | < 50 |
| CC(C)c1ncccc1-c1ncc2c(n1)n([C@@H](C)c1ccc(-c3nc(C(F)(F)F)cn3C)cc1)c(=O)n2C [Compound I-116, (S)-2-(2-isopropylpyridin-3-yl)-7-methyl-9-(1-(4-(1-methyl-4-(trifluoromethyl)-1H-imidazol-2-yl)phenyl)ethyl)-7,9-dihydro-8H-purin-8-one] | < 50 |
| CC(C)c1ncccc1-c1ncc2c(n1)n(Cc1ccc(-n3nc(C(F)(F)F)cc3N3CCOCC3)cc1)c(=O)n2C [Compound I-117, 2-(2-isopropylpyridin-3-yl)-7-methyl-9-(4-(5-morpholino-3-(trifluoromethyl)-1H-pyrazol-1-yl)benzyl)-7,9-dihydro-8H-purin-8-one] | < 50 |
| COc1cc(C)n(-c2ccc(Cn3c(=O)n(C)c4cnc(-c5cccnc5C(C)C)nc43)cc2)n1 [Compound I-118, 2-(2-isopropylpyridin-3-yl)-9-(4-(3-methoxy-5-methyl-1H-pyrazol-1-yl)benzyl)-7-methyl-7,9-dihydro-8H-purin-8-one] | < 50 |
| CC(C)c1ncccc1-c1ncc2c(n1)n(Cc1ccc(-c3nc(C(F)(F)F)cn3C)cc1)c(=O)n2C1COC1 [Compound I-119, 2-(2-isopropylpyridin-3-yl)-9-(4-(1-methyl-4-(trifluoromethyl)-1H-imidazol-2-yl)benzyl)-7-(oxetan-3-yl)-7,9-dihydro-8H-purin-8-one] | 50 to 200 |
| COCCn1c(=O)n(Cc2ccc(-c3nc(C(F)(F)F)cn3C)cc2)c2nc(-c3cccnc3C(C)C)ncc21 [Compound I-120, 2-(2-isopropylpyridin-3-yl)-7-(2-methoxyethyl)-9-(4-(1-methyl-4-(trifluoromethyl)-1H-imidazol-2-yl)benzyl)-7,9-dihydro-8H-purin-8-one] | < 50 |
| CC(C)c1ncccc1-c1ncc2c(n1)n(Cc1ccc(-c3nc(C(F)(F)F)cn3C)cc1)c(=O)n2C1CS(=O)(=O)C1 [Compound I-121, 7-(1,1-dioxidothietan-3-yl)-2-(2-isopropylpyridin-3-yl)-9-(4-(1-methyl-4-(trifluoromethyl)-1H-imidazol-2-yl)benzyl)-7,9-dihydro-8H-purin-8-one] | 200 to 2000 |
| CC(C)c1ncccc1-c1ncc2c(n1)n(Cc1ccc(-c3nc(C(F)(F)F)cn3C)cc1)c(=O)n2C1CCOCC1 [Compound I-122, 2-(2-isopropylpyridin-3-yl)-9-(4-(1-methyl-4-(trifluoromethyl)-1H-imidazol-2-yl)benzyl)-7-(tetrahydro-2H-pyran-4-yl)-7,9-dihydro-8H-purin-8-one] | 200 to 2000 |
| CC(C)c1ncccc1-c1ncc2c(n1)n(Cc1ccc(-c3nc(C(F)(F)F)cn3C)cc1)c(=O)n2CCO [Compound I-123, 7-(2-hydroxyethyl)-2-(2-isopropylpyridin-3-yl)-9-(4-(1-methyl-4-(trifluoromethyl)-1H-imidazol-2-yl)benzyl)-7,9-dihydro-8H-purin-8-one] | 50 to 200 |
| CC(C)c1ncccc1-c1ncc2c(n1)n(Cc1ccc(-c3nc(C(F)(F)F)cn3C3COC3)cc1)c(=O)n2C [Compound I-124, 2-(2-isopropylpyridin-3-yl)-7-methyl-9-(4-(1-(oxetan-3-yl)-4-(trifluoromethyl)-1H-imidazol-2-yl)benzyl)-7,9-dihydro-8H-purin-8-one] | 50 to 200 |
| CC(C)c1ncccc1-c1ncc2c(n1)n(Cc1cc(F)c(-c3nc(C(F)(F)F)cn3C)c(F)c1)c(=O)n2C [Compound I-125, 9-(3,5-difluoro-4-(1-methyl-4-(trifluoromethyl)-1H-imidazol-2-yl)benzyl)-2-(2-isopropylpyridin-3-yl)-7-methyl-7,9-dihydro-8H-purin-8-one] | 50 to 200 |
| CC(C)c1ncccc1-c1ncc2c(n1)n(Cc1ccc(-c3nc(C(F)(F)F)cn3C)c(F)c1)c(=O)n2C [Compound I-126, 9-(3-fluoro-4-(1-methyl-4-(trifluoromethyl)-1H-imidazol-2-yl)benzyl)-2-(2-isopropylpyridin-3-yl)-7-methyl-7,9-dihydro-8H-purin-8-one] | < 50 |
| CC(C)c1ncccc1-c1ncc2c(n1)n(Cc1ccc(-c3nc(C(F)(F)F)cn3C)cc1F)c(=O)n2C [Compound I-127, 9-(2-fluoro-4-(1-methyl-4-(trifluoromethyl)-1H-imidazol-2-yl)benzyl)-2-(2-isopropylpyridin-3-yl)-7-methyl-7,9-dihydro-8H-purin-8-one] | 50 to 200 |
| CC(C)c1ncccc1-c1ncc2c(n1)n(Cc1c(F)cc(-c3nc(C(F)(F)F)cn3C)cc1F)c(=O)n2C [Compound I-128, 9-(2,6-difluoro-4-(1-methyl-4-(trifluoromethyl)-1H-imidazol-2-yl)benzyl)-2-(2-isopropylpyridin-3-yl)-7-methyl-7,9-dihydro-8H-purin-8-one] | 50 to 200 |
| [2H]C([2H])([2H])n1c(=O)n(Cc2ccc(-c3nc(C(F)(F)F)cn3C)cc2)c2nc(-c3cccnc3C(C)C)ncc21 [Compound I-129, 2-(2-isopropylpyridin-3-yl)-7-(methyl-d3)-9-(4-(1-methyl-4-(trifluoromethyl)-1H-imidazol-2-yl)benzyl)-7,9-dihydro-8H-purin-8-one] | < 50 |
| [2H]C([2H])([2H])n1cc(C(F)(F)F)nc1-c1ccc(Cn2c(=O)n(C([2H])([2H])[2H])c3cnc(-c4cccnc4C(C)C)nc32)cc1 [Compound I-130, 2-(2-isopropylpyridin-3-yl)-7-(methyl-d3)-9-(4-(1-(methyl-d3)-4-(trifluoromethyl)-1H-imidazol-2-yl)benzyl)-7,9-dihydro-8H-purin-8-one] | < 50 |
| [2H]C([2H])([2H])n1cc(C(F)(F)F)nc1-c1ccc(Cn2c(=O)n(C)c3cnc(-c4cccnc4C(C)C)nc32)cc1 [Compound I-131, 2-(2-isopropylpyridin-3-yl)-7-methyl-9-(4-(1-(methyl-d3)-4-(trifluoromethyl)-1H-imidazol-2-yl)benzyl)-7,9-dihydro-8H-purin-8-one] | < 50 |
| Cn1cc(C(F)(F)F)nc1-c1ccc(Cn2c(=O)n(C)c3cnc(-c4ccccc4C(C)(C)O)nc32)cc1 [Compound I-132, 2-(2-(2-hydroxypropan-2-yl)phenyl)-7-methyl-9-(4-(1-methyl-4-(trifluoromethyl)-1H-imidazol-2-yl)benzyl)-7,9-dihydro-8H-purin-8-one] | < 50 |
| Cn1cc(C(F)(F)F)nc1-c1ccc(Cn2c(=O)n(C)c3cnc(-c4cccnc4N4CCOCC4)nc32)cc1 [Compound I-133, 7-methyl-9-(4-(1-methyl-4-(trifluoromethyl)-1H-imidazol-2-yl)benzyl)-2-(2-morpholinopyridin-3-yl)-7,9-dihydro-8H-purin-8-one] | 200 to 2000 |
| Cn1cc(C(F)(F)F)nc1-c1ccc(Cn2c(=O)n(C)c3cnc(-c4cccnc4N4CC(F)C4)nc32)cc1 [Compound I-134, 2-(2-(3-fluoroazetidin-1-yl)pyridin-3-yl)-7-methyl-9-(4-(1-methyl-4-(trifluoromethyl)-1H-imidazol-2-yl)benzyl)-7,9-dihydro-8H-purin-8-one] | 50 to 200 |
| Cn1cc(C(F)(F)F)nc1-c1ccc(Cn2c(=O)n(C)c3cnc(-c4cccnc4N4CC(F)(F)C4)nc32)cc1 [Compound I-135, 2-(2-(3,3-difluoroazetidin-1-yl)pyridin-3-yl)-7-methyl-9-(4-(1-methyl-4-(trifluoromethyl)-1H-imidazol-2-yl)benzyl)-7,9-dihydro-8H-purin-8-one] | 50 to 200 |
| Cn1cc(C(F)(F)F)nc1-c1ccc(Cn2c(=O)n(C)c3cnc(-c4cccnc4N4CC(C(F)(F)F)C4)nc32)cc1 [Compound I-136, 7-methyl-9-(4-(1-methyl-4-(trifluoromethyl)-1H-imidazol-2-yl)benzyl)-2-(2-(3-(trifluoromethyl)azetidin-1-yl)pyridin-3-yl)-7,9-dihydro-8H-purin-8-one] | 50 to 200 |
| Cn1cc(C(F)(F)F)nc1-c1ccc(Cn2c(=O)n(C)c3cnc(-c4cccnc4OC4CC4)nc32)cc1 [Compound I-137, 2-(2-cyclopropoxypyridin-3-yl)-7-methyl-9-(4-(1-methyl-4-(trifluoromethyl)-1H-imidazol-2-yl)benzyl)-7,9-dihydro-8H-purin-8-one] | < 50 |
| CC(C)c1ccccc1-c1ncc2[nH]c(=O)n(Cc3ccc(-c4nc(C(F)(F)F)cn4C)cc3)c2n1 [Compound I-138, 2-(2-Isopropylphenyl)-9-(4-(1-methyl-4-(trifluoromethyl)-1H-imidazol-2-yl)benzyl)-7,9-dihydro-8H-purin-8-one] | < 50 |
| CC(C)c1ccccc1-c1ncc2[nH]c(=O)n(Cc3ccc(-n4ccnn4)cc3)c2n1 [Compound I-139, 9-(4-(1H-1,2,3-triazol-1-yl)benzyl)-2-(2-isopropylphenyl)-7,9-dihydro-8H-purin-8-one] | 50 to 200 |
| CC(C)c1ccccc1-c1ncc2[nH]c(=O)n(Cc3ccc(-n4nccn4)cc3)c2n1 [Compound I-140, 9-(4-(2H-1,2,3-triazol-2-yl)benzyl)-2-(2-isopropylphenyl)-7,9-dihydro-8H-purin-8-one] | 50 to 200 |
